Data as given in the COVID Moonshot data (paper PMC11187573), “Identification of SARS-CoV-2 Mpro inhibitors through deep reinforcement learning for de novo drug design and computational chemistry approaches” (RSC Medicinal Chemistry, 2024).
pIC50: −log10 of the molar value.

Experiments:
[1] = molecular target: SARS-CoV-2 Main Protease (SARS-CoV-2) (UniProt P0DTD1)
[2] = molecular target: SARS-CoV-2 Main Protease (SARS-CoV-2) (UniProt P0DTD1); remark: listed apart in the source

SMILES | inhibition ([1]; 50.0 µM) | inhibition ([2]; 20.0 µM) | inhibition ([2]; 50.0 µM) | relative solubility at 20 uM | relative solubility at 100 uM | inhibition ([1]; 20.0 µM) | pIC50 [1] | pIC50 [2]
COC(=O)c1sc(NS(=O)(=O)c2ccc(CF)cc2)nc1C(C)(C)C | -7.77% | 0% | 0% | 1 | 0.99 | – | – | –
Cc1cc(NC(=O)Cn2cncc2C)cc(C)c1Cl | 4.88% | – | 25.8% | 1 | 0.99 | 2.9% | – | –
CCN(CC1COc2ccccc2O1)C(=O)c1cc(=O)[nH]c2ccc([N+](=O)[O-])cc12 (stereo not drawn) | -7.35% | – | 0% | 1 | 1 | 2.87% | – | –
O=C(Nc1nncn1C1CC1)C1CCOc2ccc(Cl)cc21 (stereo not drawn) | 54.6% | – | 1.9% | 1 | 1 | 46.7% | 6.22 | –
C=CC(=O)N(c1ccc(S(F)(F)(F)(F)F)cc1)C(C(=O)NC(C)(C)C)c1cccnc1 (stereo not drawn) | 23% | 6.54% | – | 0.98 | 0.9 | 11.1% | – | –
C=CC(=O)N(c1ccc(N(C)C)c(C)c1)C(C(=O)Nc1ccc(OC)cc1C)c1cccnc1 (stereo not drawn) | 7.01% | 0% | – | 0.87 | 0.83 | 2.51% | – | –
Cc1nn(-c2ccccc2)c(Nc2cccc(C(F)(F)F)c2)c1NS(C)(=O)=O | -5.82% | – | -10.6% | 0.95 | 0.97 | 3.18% | – | –
C/C=C/C(=O)Nc1cccc(OC2CC(=O)N2)c1 (stereo not drawn) | 4.68% | – | 0% | 1 | 1 | -3.03% | – | –
O=C(NCc1cccc(C(=O)N2CCOCC2)c1)c1cnc2c(c1)c(=O)[nH]c(=O)n2Cc1ccccc1 | -3.76% | – | 0% | 0.99 | 0.9 | 2.69% | – | –
N#Cc1ccnc(CNC(=O)Cc2c[nH]c3ncccc23)c1 | -17.2% | 0% | – | 0.97 | 0.98 | -23.2% | – | –
CN(CC1COc2ccccc2O1)C(=O)c1cc(=O)[nH]c2ccc(F)cc12 (stereo not drawn) | 1.67% | – | 0% | 0.99 | 0.99 | -4.21% | – | –
Cc1ccccc1NC1CCN(c2ccc(S(N)(=O)=O)cc2)CC1 | 7.22% | 25.2% | 37.6% | 0.91 | 0.91 | 4.98% | – | –
Cc1ccnc(C)c1NC(=O)NCc1cccc(N2CCOCC2)c1 | -9.74% | – | 0% | 1 | 1 | 2.7% | – | –
Cc1ccncc1NC(=O)CCOC1CC1 | 22% | – | 0% | 1 | 1 | 8.26% | – | –
Cc1ccncc1NC(=O)CCNC(=O)c1ccccc1F | -15.8% | 0% | 0% | 1 | 1 | – | – | –
Cc1nnc(CC(=O)Nc2cccnc2)s1 | -0.0294% | -1.82% | 0% | 1 | 0.99 | -1.16% | – | –
C=CC(=O)N(c1ccc(C2(C)CC2)cc1)C(C(=O)Nc1ccc(OC)cc1C)c1cccnc1 (stereo not drawn) | 6.08% | 0% | 0% | 1 | 0.52 | – | – | –
O=C(NCc1ccccc1OCCO)C(=O)N[C@H]1C[C@H]1C1CCOCC1 (stereo in doubt) | -9.81% | – | 0% | 1.01 | 1 | 1.34% | – | –
O=C(c1cc(=O)[nH]c2ccccc12)N1CCN(Cc2ccccc2)CC1 | 87.8% | – | 82.4% | 0.99 | 1 | 74.5% | – | 4.73

SMILES | inhibition ([1]; 50.0 µM) | inhibition ([2]; 20.0 µM) | inhibition ([2]; 50.0 µM) | relative solubility at 20 uM | relative solubility at 100 uM | inhibition ([1]; 20.0 µM) | pIC50 [1] | pIC50 [2]
C=CC(=O)N(c1ccc(C(C)(C)CC)cc1)C(C(=O)Nc1ccc(Cl)cc1)c1cccnc1 (stereo not drawn) | 22.7% | 11.3% | – | 0.82 | 0.68 | 16.5% | – | –
Cc1cccc(NC(=O)Cn2cncc2C)n1 | -3.38% | – | 0% | 1 | 1.01 | -1.3% | – | –
Cc1ccncc1N(C)C(=O)[C@@H]1C[C@H]1CF (stereo in doubt) | 1.67% | – | 4.57% | 1.01 | 1.01 | -7.38% | – | –
C=CC(=O)N(C1COC2(CCC2)C1)C(C(=O)NC(C)(C)C)c1cccnc1 (stereo not drawn) | 13.4% | 0% | – | 0.97 | 0.96 | 12.6% | – | –
COc1ccc2[nH]cc(CCNS(C)(=O)=O)c2c1 | -4.39% | 0% | – | 0.92 | 0.86 | -4.19% | – | –
NS(=O)(=O)c1ccc(N2CCC(CO)CC2)cc1 | 7.03% | -1.13% | 2.83% | 1 | 1 | 3.95% | – | –
C=CC(=O)N(c1cc(C(C)(C)C)on1)C(C(=O)NC(C)(C)C)c1cccnc1 (stereo not drawn) | 16.1% | 28.7% | – | 0.98 | 0.91 | 7.86% | – | –
C=CC(=O)N(c1ccc(C(F)(F)F)cc1)C(C(=O)NCCc1cccc(F)c1)c1cccnc1 (stereo not drawn) | 72.7% | – | 100% | 0.99 | 0.94 | 50.7% | – | 5.21
CC(C)(C)CC(=O)C(C#N)C(=O)Nc1ccccc1 (stereo not drawn) | 21.6% | 2.52% | 0% | 1 | 1 | – | – | –
O=C(Nc1ccc(N(Cc2ccsc2)C(=O)Cn2nnc3ccccc32)cc1)C1CC1 | 70.2% | – | 62.2% | 0.9 | 0.59 | 69% | – | 4.55
C=CC(=O)N(c1ccc(C(F)(F)F)cc1)C(C(=O)NCCc1cccc(F)c1)c1cncc(Cl)c1 (stereo not drawn) | 68.2% | – | 82.1% | 0.94 | 0.28 | 50.2% | – | 5.31
Cc1ccncc1-c1ccc(S(N)(=O)=O)cc1 | 8.58% | -2.96% | -2.15% | 1 | 1 | – | – | –
Cc1cccc(NC(=O)C(C#N)C(=O)C2CCC2)c1 (stereo not drawn) | 1.6% | 0.951% | 0% | 0.99 | 0.99 | – | – | –
C=CC(=O)N1CCN(S(=O)(=O)c2ccccc2-c2ccc(Nc3ccc(C#N)cn3)cc2)CC1 | -6.3% | – | 0% | 0.75 | 0.61 | -11.3% | – | –
CS(=O)(=O)N1CCN(C(=O)CCl)CC1c1ccccc1 (stereo not drawn) | 69.5% | 87.5% | 95.9% | 1 | 1 | 64.6% | – | 5.48
C=CC(=O)N(c1ccc(C(C)(C)C)cc1)C(C(=O)NCCCSC)c1cccnc1 (stereo not drawn) | 75.6% | 70% | 100% | 1 | 1 | 50.3% | – | 4.86
Cc1ccncc1NC(=O)Cc1cccc(Br)c1 | 77.7% | – | 98.3% | 1.01 | 1 | 56.2% | – | 4.80
CCS(=O)(=O)N1CCC(C(=O)Nc2cc(Cl)ccc2O)CC1 | -2.7% | – | 0% | 1 | 1 | -1.05% | – | –
C#Cc1cccc(N(C(=O)C=C)C(C(=O)NC(C)(C)C)c2cccnc2)c1 (stereo not drawn) | 3.7% | 0% | – | 1 | 1.01 | -3.84% | – | –
